Laboratory results from article PMC2248166, “Quantitative peptide binding motifs for 19 human and mouse MHC class I molecules derived using positional scanning combinatorial peptide libraries” (Immunome Research, 2008).
Where a SMILES comes first, the peptide text is derived from it.

What follows are molecules tested against HLA B*1503 (Homo sapiens, UniProt P01889, A329T/A93T/A95T/C349S/D201E/D98Y/E187L/E204Q/K202T/N87E/Q94N/R155S/R180L/S121R/S35A/V306I/V36M/Y140S/Y91S) (assay: biochemical).
Type: binding

Which IC50 does the source give for CC[C@H](C)[C@H](NC(=O)[C@H](CC(N)=O)NC(=O)[C@H](CCSC)NC(=O)[C@@H](NC(=O)[C@H](CCSC)NC(=O)[C@@H](N)CC(C)C)[C@@H](C)O)C(=O)N[C@H](C(=O)N[C@@H](CC(N)=O)C(=O)N[C@@H](Cc1ccccc1)C(=O)O)C(C)C [3102.1344] (H-LMTMNIVNF-OH) here?
Its IC50 is 17 nM.

CC(C)[C@H](NC(=O)[C@@H](NC(=O)[C@H](CC(=O)O)NC(=O)[C@H](CO)NC(=O)[C@H](CCC(N)=O)NC(=O)[C@H](CO)NC(=O)[C@H](CCCCN)NC(=O)[C@H](C)N)[C@@H](C)O)C(=O)N[C@@H](Cc1ccccc1)C(=O)O [3102.1191] (H-AKSQSDTVF-OH) was tested. Which IC50 did it give?
Its IC50 is 0.16 nM.

How did the IC50 turn out when CC(C)[C@H](NC(=O)[C@H](Cc1ccc(O)cc1)NC(=O)[C@H](CCC(N)=O)NC(=O)[C@@H](N)Cc1ccccc1)C(=O)N[C@@H](CO)C(=O)N[C@@H](Cc1ccc(O)cc1)C(=O)N[C@@H](CO)C(=O)N[C@@H](CC(N)=O)C(=O)N[C@@H](Cc1ccccc1)C(=O)O [3102.1128] (H-FQYVSYSNF-OH) was run?
The IC50 was 0.26 nM.

CC[C@H](C)[C@H](NC(=O)[C@@H]1CCCN1C(=O)CNC(=O)[C@H](Cc1ccccc1)NC(=O)[C@H](Cc1ccccc1)NC(=O)[C@@H](NC(=O)[C@H](CCCCN)NC(=O)[C@@H](N)CO)C(C)C)C(=O)N[C@@H](Cc1ccc(O)cc1)C(=O)O [3102.1134] (H-SKVFFGPIY-OH) was tested. Which IC50 did it give?
The IC50 was 1 nM.

With CC[C@H](C)[C@H](NC(=O)[C@H](Cc1ccc(O)cc1)NC(=O)[C@H](CCC(N)=O)NC(=O)[C@@H](N)Cc1ccc(O)cc1)C(=O)N[C@@H](Cc1ccccc1)C(=O)N[C@@H](CC(C)C)C(=O)N[C@@H](CO)C(=O)N[C@@H](Cc1ccccc1)C(=O)N[C@@H](Cc1ccccc1)C(=O)O [3102.1259] as the molecule, how does the IC50 read?
Its IC50 is 0.94 nM.

With CC(C)C[C@H](NC(=O)[C@H](Cc1c[nH]c2ccccc12)NC(=O)[C@H](CCCCN)NC(=O)[C@H](C)NC(=O)[C@H](CCCCN)NC(=O)[C@@H](N)Cc1ccccc1)C(=O)N[C@H](C(=O)N1CCC[C@H]1C(=O)N[C@@H](Cc1ccccc1)C(=O)O)[C@@H](C)O [3102.1174] (H-FKAKWLTPF-OH) as the molecule, how does the IC50 read?
The IC50 was 0.073 nM.

Which IC50 does the source give for CC(C)C[C@H](N)C(=O)N[C@@H](CCCCN)C(=O)N[C@@H](CO)C(=O)N1CCC[C@H]1C(=O)N[C@@H](CCCCN)C(=O)N[C@@H](CCCNC(=N)N)C(=O)N[C@@H](CS)C(=O)N[C@@H](CO)C(=O)N[C@@H](Cc1ccccc1)C(=O)O [3102.1282] (H-LKSPKRCSF-OH) here?
The IC50 was 2.7 nM.

Which IC50 does the source give for CC[C@H](C)[C@H](NC(=O)[C@@H](NC(=O)[C@H](Cc1ccccc1)NC(=O)[C@H](CCSC)NC(=O)[C@@H](NC(=O)[C@H](CCCCN)NC(=O)[C@@H](N)[C@@H](C)O)C(C)C)C(C)C)C(=O)N[C@@H](CCCNC(=N)N)C(=O)N[C@@H](Cc1ccccc1)C(=O)O [3102.1199] (H-TKVMFVIRF-OH) here?
Its IC50 is 31 nM.

How did the IC50 turn out when CC[C@H](C)[C@H](NC(=O)CNC(=O)[C@H](C)NC(=O)[C@H](Cc1ccc(O)cc1)NC(=O)[C@H](CCCCN)NC(=O)[C@@H](N)CO)C(=O)N[C@@H](CC(N)=O)C(=O)N[C@H](C(=O)N[C@@H](CC(C)C)C(=O)O)[C@@H](C)CC [3102.1077] (H-SKYAGINIL-OH) was run?
The IC50 was 0.27 nM.

Which IC50 does the source give for CC[C@H](C)[C@H](NC(=O)[C@H](CCCCN)NC(=O)[C@@H](N)CCSC)C(=O)N[C@H](C(=O)N[C@@H](CCCNC(=N)N)C(=O)N1CCC[C@H]1C(=O)N[C@@H](CCCNC(=N)N)C(=O)N[C@@H](Cc1c[nH]cn1)C(=O)N[C@@H](Cc1ccccc1)C(=O)O)[C@@H](C)O [3102.1200] (H-MKITRPRHF-OH) here?
Its IC50 is 1 nM.

How did the IC50 turn out when CC[C@H](C)[C@H](NC(=O)[C@H](CO)NC(=O)[C@H](CC(=O)O)NC(=O)[C@H](CO)NC(=O)[C@H](CC(N)=O)NC(=O)[C@H](CCC(N)=O)NC(=O)[C@H](CCC(N)=O)NC(=O)[C@@H](N)CO)C(=O)N[C@@H](Cc1ccccc1)C(=O)O [3102.1340] (H-SQQNSDSIF-OH) was run?
The IC50 was 1.9 nM.

How did the IC50 turn out when CC(C)[C@H](NC(=O)[C@H](Cc1ccccc1)NC(=O)[C@H](Cc1c[nH]cn1)NC(=O)[C@H](CCC(N)=O)NC(=O)[C@@H](N)Cc1ccc(O)cc1)C(=O)N[C@@H](C)C(=O)N[C@@H](CCCNC(=N)N)C(=O)N[C@H](C(=O)N[C@@H](Cc1ccccc1)C(=O)O)C(C)C [3102.1278] (H-YQHFVARVF-OH) was run?
The IC50 was 0.4 nM.

Which IC50 does the source give for CC[C@H](C)[C@H](NC(=O)[C@H](CC(N)=O)NC(=O)[C@H](CC(C)C)NC(=O)[C@H](Cc1ccccc1)NC(=O)[C@H](CC(C)C)NC(=O)[C@@H](N)Cc1ccccc1)C(=O)N[C@@H](CC(N)=O)C(=O)N[C@@H](Cc1c[nH]cn1)C(=O)N[C@@H](Cc1ccc(O)cc1)C(=O)O [3102.1309] (H-FLFLNINHY-OH) here?
The IC50 was 6.5 nM.

With CSCC[C@H](NC(=O)[C@H](CC(C)C)NC(=O)[C@H](CCSC)NC(=O)[C@@H](N)Cc1ccccc1)C(=O)N[C@@H](CCC(=O)O)C(=O)N[C@H](C(=O)N[C@@H](CCSC)C(=O)N[C@@H](Cc1ccccc1)C(=O)N[C@@H](Cc1ccccc1)C(=O)O)[C@@H](C)O [3102.1089] (H-FMLMETMFF-OH) as the molecule, how does the IC50 read?
Its IC50 is 0.19 nM.

For CC[C@H](C)[C@H](NC(=O)[C@@H](NC(=O)[C@H](C)NC(=O)[C@H](CS)NC(=O)[C@H](CCCNC(=N)N)NC(=O)[C@@H](NC(=O)[C@@H](N)Cc1ccccc1)[C@@H](C)O)C(C)C)C(=O)N1CCC[C@H]1C(=O)N[C@@H](Cc1ccccc1)C(=O)O [3102.1166] (H-FTRCAVIPF-OH), which IC50 is on record?
Its IC50 is 5.4 nM.

Which IC50 does the source give for NCCCC[C@H](NC(=O)[C@H](CC(=O)O)NC(=O)[C@H](CC(N)=O)NC(=O)[C@H](CC(N)=O)NC(=O)[C@H](Cc1ccc(O)cc1)NC(=O)[C@H](CCCCN)NC(=O)[C@@H](N)CCCCN)C(=O)N[C@@H](CO)C(=O)N[C@@H](Cc1ccccc1)C(=O)O [3102.1179] (H-KKYNNDKSF-OH) here?
The IC50 was 0.078 nM.

CSCC[C@H](NC(=O)[C@@H](NC(=O)[C@H](CO)NC(=O)[C@@H](NC(=O)[C@H](Cc1ccc(O)cc1)NC(=O)[C@@H](NC(=O)[C@H](Cc1ccccc1)NC(=O)[C@H](CCCCN)NC(=O)[C@@H](N)CO)C(C)C)C(C)C)C(C)C)C(=O)O [3102.1213] (H-SKFVYVSVM-OH) was tested. Which IC50 did it give?
The IC50 was 1.6 nM.

CC[C@H](C)[C@H](N)C(=O)N[C@@H](CCC(N)=O)C(=O)N[C@@H](Cc1ccccc1)C(=O)N[C@@H](CCSC)C(=O)N[C@@H](Cc1c[nH]cn1)C(=O)N[C@@H](CCC(=O)O)C(=O)N[C@@H](CCC(N)=O)C(=O)NCC(=O)N[C@@H](Cc1ccc(O)cc1)C(=O)O [3102.1159] (H-IQFMHEQGY-OH) was tested. Which IC50 did it give?
The IC50 was 3.7 nM.

For CC(C)C[C@H](NC(=O)[C@H](CCCCN)NC(=O)[C@H](CC(N)=O)NC(=O)[C@@H](NC(=O)[C@H](Cc1ccccc1)NC(=O)[C@H](CS)NC(=O)[C@@H](NC(=O)[C@H](CCCCN)NC(=O)[C@@H](N)CCCCN)C(C)C)C(C)C)C(=O)O [3102.1086] (H-KKVCFVNKL-OH), which IC50 is on record?
Its IC50 is 4.5 nM.

With CC(C)[C@H](NC(=O)[C@H](CCC(N)=O)NC(=O)[C@@H](N)CCCNC(=N)N)C(=O)N[C@H](C(=O)N[C@@H](CC(=O)O)C(=O)N[C@@H](Cc1ccccc1)C(=O)N[C@@H](Cc1ccccc1)C(=O)N[C@@H](CCCCN)C(=O)N[C@@H](Cc1ccccc1)C(=O)O)C(C)C [3102.1123] (H-RQVVDFFKF-OH) as the molecule, how does the IC50 read?
The IC50 was 0.34 nM.

For CSCC[C@H](NC(=O)[C@H](Cc1ccc(O)cc1)NC(=O)[C@H](CC(N)=O)NC(=O)[C@H](Cc1ccc(O)cc1)NC(=O)[C@H](CO)NC(=O)[C@H](CCCCN)NC(=O)[C@@H](NC(=O)[C@H](CCCCN)NC(=O)[C@@H](N)CCCNC(=N)N)C(C)C)C(=O)O [3102.1285] (H-RKVKSYNYM-OH), which IC50 is on record?
Its IC50 is 2.6 nM.

CC(C)C[C@H](N)C(=O)N[C@@H](CCCCN)C(=O)N[C@@H](CO)C(=O)N[C@@H](CC(N)=O)C(=O)N[C@@H](C)C(=O)N[C@@H](CC(=O)O)C(=O)N[C@@H](Cc1c[nH]c2ccccc12)C(=O)N[C@@H](Cc1ccccc1)C(=O)N[C@@H](Cc1ccccc1)C(=O)O [3102.1304] (H-LKSNADWFF-OH) was tested. Which IC50 did it give?
Its IC50 is 10 nM.

CC[C@H](C)[C@H](NC(=O)[C@H](CC(C)C)NC(=O)[C@@H](NC(=O)[C@H](CO)NC(=O)[C@@H](NC(=O)[C@H](CCCCN)NC(=O)[C@H](C)N)[C@@H](C)O)[C@@H](C)O)C(=O)N[C@@H](Cc1ccccc1)C(=O)N[C@@H](Cc1ccccc1)C(=O)O [3102.1088] (H-AKTSTLIFF-OH) was tested. Which IC50 did it give?
Its IC50 is 1.6 nM.

Which IC50 does the source give for CC[C@H](C)[C@H](NC(=O)[C@H](CO)NC(=O)[C@H](CC(C)C)NC(=O)[C@@H](NC(=O)[C@H](CCCCN)NC(=O)[C@@H](N)Cc1c[nH]c2ccccc12)C(C)C)C(=O)N[C@@H](CCSC)C(=O)N[C@@H](C)C(=O)N[C@@H](Cc1ccccc1)C(=O)O [3102.1300] (H-WKVLSIMAF-OH) here?
Its IC50 is 9.3 nM.

CSCC[C@H](NC(=O)[C@@H](N)CCCCN)C(=O)N[C@H](C(=O)N[C@@H](Cc1ccc(O)cc1)C(=O)N[C@@H](C)C(=O)N[C@@H](CC(C)C)C(=O)N[C@@H](CC(C)C)C(=O)N[C@@H](CC(C)C)C(=O)N[C@@H](Cc1ccc(O)cc1)C(=O)O)C(C)C [3102.1336] (H-KMVYALLLY-OH) was tested. Which IC50 did it give?
The IC50 was 2.7 nM.

With CC[C@H](C)[C@H](N)C(=O)N[C@@H](CCC(=O)O)C(=O)N[C@H](C(=O)N[C@@H](CO)C(=O)N[C@@H](CO)C(=O)N[C@@H](CC(=O)O)C(=O)N[C@H](C(=O)N[C@@H](CO)C(=O)N[C@@H](Cc1ccccc1)C(=O)O)[C@@H](C)CC)C(C)C [3102.1201] (H-IEVSSDISF-OH) as the molecule, how does the IC50 read?
The IC50 was 9.7 nM.

With CC[C@H](C)[C@H](NC(=O)[C@H](CC(N)=O)NC(=O)[C@@H](NC(=O)[C@H](CCCCN)NC(=O)[C@@H](N)Cc1ccccc1)[C@@H](C)CC)C(=O)N[C@@H](Cc1ccccc1)C(=O)N[C@@H](CCSC)C(=O)N[C@@H](C)C(=O)N[C@@H](Cc1ccccc1)C(=O)O [3102.1074] (H-FKINIFMAF-OH) as the molecule, how does the IC50 read?
The IC50 was 10 nM.

With CC[C@H](C)[C@H](NC(=O)[C@@H](NC(=O)[C@H](CC(C)C)NC(=O)[C@H](CCSC)NC(=O)[C@H](CCCCN)NC(=O)[C@@H](N)CC(N)=O)[C@@H](C)O)C(=O)N[C@H](C(=O)N[C@@H](CO)C(=O)N[C@@H](Cc1ccccc1)C(=O)O)[C@@H](C)O [3102.1234] (H-NKMLTITSF-OH) as the molecule, how does the IC50 read?
The IC50 was 1.4 nM.

How did the IC50 turn out when CSCC[C@H](NC(=O)[C@@H](N)CCSC)C(=O)N[C@H](C(=O)N[C@@H](CO)C(=O)N[C@H](C(=O)N[C@@H](CCC(=O)O)C(=O)N[C@@H](CC(N)=O)C(=O)N[C@@H](CC(N)=O)C(=O)N[C@@H](CC(C)C)C(=O)O)[C@@H](C)O)C(C)C [3102.1183] (H-MMVSTENNL-OH) was run?
The IC50 was 11 nM.
